From patent US20230331827A1, “POTASSIUM CHANNEL INHIBITORS” (priority 2017, published 2023) come the findings set out here.

This assay deals with trypsin. Kind of assay: Phage TRF binding assay on immobilised biotinylated trypsin (monoclonal phage ELISA). Conditions: presented on phage as direct N-terminus gene-III fusion. On the procedure: Phage display technology facilitates isolation of binders to any given target from large combinatorial repertoires based on proteins and peptides that can be presented on the surface of filamentous phage^105. In order to isolate functional knottin-antibody fusions from the KnotBody libraries multiple rounds of phage display selections on trypsin (cognate antigen for the EETI-II donor) were carried out. Phage particles were prepared by rescuing KnotBody libraries using trypsin cleavable helper phage ^102,106Two rounds of phage display selections were performed on 10 µg/ml biotinylated trypsin immobilised on Streptavidin (for Round-1) or Neutravidin (for round-2) coated Maxisorp™ immunotubes (Thermo Scientific, Cat No. 444202). In both rounds of selection, phage libraries were pre-incubated with streptavidin coated paramagnetic beads (Thermo Fisher Scientific, Cat. No. 11205D). […] Polyclonal phage preparations from round-2 selection outputs were analysed for trypsin binding using a time resolved fluorescence (TRF) binding assay. In this assay, polyclonal phage binding to biotinylated trypsin immobilised on neutravidin (Thermo Fisher Scientific, Cat. No 31000) coated Maxisorp™ plates (Thermo Scientific, Cat. No. 437111) was detected using a mouse anti-M13 antibody (GE Healthcare, Cat. No. 27-9420-01) followed by europium conjugated anti-mouse antibody (Perkin Elmer, Cat. No. AD0124). […]
A general note: In an ELISA, binding on a coated surface is turned into a signal by an enzyme label.

Turning to “Ecballium elaterium trypsin inhibitor-II [EETI-II, reference compound]”, the binding to trypsin result is recorded as “no detectable binding to trypsin”.
